Blank lines part the entries; values can stand above or below the molecule they belong to. Starred links: 1 amine or outer side, 2 acyl side, 3 side chain; linkers in the order of their positions; H or OH if unused. Positions of bridges follow the written chain, without caps; N, C: chain ends. Non-standard residues stand in square brackets, D forms with d. Residues, ends and D or L forms follow the SMILES beside them. Groups on a side chain read outwards from the residue. *: point of attachment. C20 diacid = O=C(O)CCCCCCCCCCCCCCCCCCC(=O)*; γGlu = O=C(O)[C@H](CCC(=O)[*:2])N[*:1]; Orn = NCCC[C@H](N)C(=O)O; AEEA = NCCOCCOCC(=O)O; Aib = CC(C)(N)C(=O)O; CH2 = C([*:1])[*:2]
What was measured:
hAMY1R = target: T1, hAMY1R (Homo sapiens, UniProt O60894+P30988); test: hAMY1R cAMP functional activity (HTRF); assay type: cell-based; details: ±SE; UMUC3 cells overexpressing hAMY1R; relative EC50
T1 construct: expressed in transfected cells
T1 sequence (O60894 27-148 partner, one chain of several): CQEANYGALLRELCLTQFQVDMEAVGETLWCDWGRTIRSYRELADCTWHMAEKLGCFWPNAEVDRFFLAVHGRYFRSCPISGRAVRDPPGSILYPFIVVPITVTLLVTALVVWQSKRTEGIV
Procedure: (§1) The AMY1 and CT receptors are GPCRs that are functionally coupled to Gas proteins. […] In vitro activity of peptides is measured by the amount of cAMP formed in human AMY1R and CTR overexpressed cells.
Human AMY1R stable cell lines are generated by further transfecting human RAMP1-pCMVpuroPB (T14213) into UMUC3 hCTR clone cells. After selection, the mRNA levels human RAMP1 from different clones are measured to confirm the expression of human AMY1R.
(§2) hAMY1R cells are cultured in MEM 1× (Corning) supplemented with 10% FBS, 1% antibiotic/antimycotic solution, 1 mM sodium pyruvate, 1×MEM NEAA, 1× GlutaMAX-I, 200 μg/mL hygromycin B, and 0.4 μg/mL puromycin. The hCTR cells are cultured in the same medium lacking the puromycin. Cultured cells are grown to 70% confluency and then incubated overnight with fresh medium.
(§3) Peptides diluted in DMSO are added (200 nL/well) in a 1:3 dilution series using ECHO acoustic liquid handler (Beckman). Cultured cells are detached with TrypLE Express (Gibco), resuspended in assay buffer, and 10 μL containing 1200 cells/well (hCTR) or 1500 cells/well (hAMY1R) are dispensed into each well. The plates are incubated at room temperature for 1 hour.
(§4) The amount of intracellular cAMP is quantitated using HTRF technology (Homogeneous Time Resolved Fluorescence; Cisbio) as per vendor instructions. Briefly, 10 μL cAMP-d2 conjugate and 10 μL anti-cAMP-cryptate conjugate in lysis buffer are incubated with the treated cells at room temperature for 60 min. […] The raw data are converted to cAMP amount (pmol/well) using a cAMP standard curve generated for each experiment.

human CT receptors = target: T2, human CT receptors (Homo sapiens, UniProt P30988); test: hCTR cAMP functional activity (HTRF); assay type: cell-based; details: ±SE; UMUC3 cells overexpressing hCTR; relative EC50
T2 construct: expressed in transfected cells
T2 sequence (P30988 25-474): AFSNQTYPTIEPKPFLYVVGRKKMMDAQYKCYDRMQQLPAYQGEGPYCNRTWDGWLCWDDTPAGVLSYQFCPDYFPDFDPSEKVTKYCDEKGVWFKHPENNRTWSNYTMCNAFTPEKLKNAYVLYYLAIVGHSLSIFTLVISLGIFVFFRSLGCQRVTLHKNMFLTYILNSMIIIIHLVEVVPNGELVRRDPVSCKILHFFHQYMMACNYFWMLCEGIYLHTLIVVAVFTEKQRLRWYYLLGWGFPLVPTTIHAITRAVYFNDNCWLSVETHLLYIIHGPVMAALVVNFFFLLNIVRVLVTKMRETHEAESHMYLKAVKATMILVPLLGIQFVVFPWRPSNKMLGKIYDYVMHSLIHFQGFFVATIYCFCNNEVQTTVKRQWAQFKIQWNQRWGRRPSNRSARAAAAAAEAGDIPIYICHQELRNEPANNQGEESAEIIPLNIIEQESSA
Procedure: as §1
Human CT receptors are stably expressed in human urinary bladder cells (UM-UC-3, or UMUC3) under control of a pcDNA expression vector. […] After 20 days under selection, the mRNA levels from different clones are measured to confirm the expression of hCTR. To determine the function of over-expressed hCTR cells, the intracellular cAMP levels in response to salmon calcitonin are measured and compared to the expression of hCTR mRNA in each clone.
as §2, §3, §4

[1] = DIO rats: Compound II alone and in combination with incretin compounds; assay type: in vivo, Long Evans rats; details: for Cumulative Food Intake: 14-day treatment period, mean±SEM
Procedure: This study is conducted to investigate the effect of Compound II for diabetes and/or obesity conditions in DIO rats when administered in combination with other incretin compounds, including a GLP-1 agonist (Compound XVII), oxyntomodulin analog (Compound XVIII), and a triagonist of glucagon, GLP-1, and GIP (Compound XIX). Diet-induced obese (DIO) male Long Evans (Envigo) rats, maintained on a calorie rich diet since arrival at Lilly (TD95217; Teklad, Madison, WI), are used in the following studies. Animals are individually housed in a temperature-controlled (24° C.) facility with 12-hour light/dark cycle (lights on 2200) and free access to food (TD95217) and water.
The rats are randomized according to their body weight, so that each experimental group of animals would have similar body weight. The body weights range from 529 to 823 grams.
Each group contains five rats. […] SC injections are made on Days 1, 4, 7, 10 and 13. Body weight and food intake are measured daily throughout the study. Absolute changes in body weight are calculated by subtracting the body weight of the same animal prior to the first injection of molecule.
At the end of the study, blood is collected to measure blood glucose and plasma insulin. Blood glucose is measured by AccuChek glucometers (Roche, Indianapolis, IN). Insulin is measured by ELISA (MSD, Rockville, MD).
All data are presented as mean±SEM of 5 animals per group. Statistical analysis is performed using one-way ANOVA, followed by Tukey's multiple comparison test to compare treatment groups to vehicle group or each other. Significant differences are identified at p<0.05.

Molecule: H-Aib-QGTFTSDYSKYLDEKKAK((2-[2-(2-Amino-ethoxy)-ethoxy]-acetyl)2-(γGlu)-CO-(CH2)18-CO2H)EFVEWLLEGGPSSG-NH2 (H-H[Aib]QGTFTSDYSKYLDEKKAK([AEEA-AEEA-γGlu-C20 diacid])EFVEWLLEGGPSSG-NH2) [Compound XVIII, oxyntomodulin analog]
Body Weight Change ([1]; 10 nmol/kg SC Day 1, 4, 7, 10, 13, Day 1 to Day 14, mean±SEM): -50.24 ± 6.36 g
Cumulative Food Intake ([1]; 10 nmol/kg SC every three days): 165.86 ± 7.45 g

Molecule: Y-Aib-QGTFTSDYSI-αMeL-LDKK((2-[2-(2-Amino-ethoxy)-ethoxy]-acetyl)-(γGlu)-CO-(CH2)18-CO2H)AQ-Aib-AFIEYLLEGGPSSGAPPPS-NH2 (YXQGTFTSDYSIXLDKKAQXAFIEYLLEGGPSSGAPPPS; Aib, αMeL; lipidated Lys; C-terminal amide; SITE 2 X at position 2 is Aib; SITE 13 X at position 13 is alpha-methyl-leucine; MOD_RES 17 K at position 17 is chemically modified by conjugation of the epsilon-amino group of the lysine side chain with (2-[2-(2-amino-ethoxy)-ethoxy]-acetyl)-(gamma-glutamic acid)-CO-(CH2)18-CO2H; SITE 20 X at position 20 is Aib; MOD_RES 39 S at position 39 is amidated) [Compound XIX, triagonist of glucagon, GLP-1, and GIP]
Body Weight Change ([1]; 3 nmol/kg SC Day 1, 4, 7, 10, 13, Day 1 to Day 14, mean±SEM): -43.28 ± 2.54 g
Cumulative Food Intake ([1]; 3 nmol/kg SC every three days): 157.50 ± 10.63 g

The next lines start with the values.

EC50 (hAMY1R): 0.113 ± 0.034 nM
EC50 (human CT receptors): 25.9 ± 7.62 nM
Molecule: CC(C)C[C@H](NC(=O)[C@H](CCCN)NC(=O)[C@H](CCC(N)=O)NC(=O)[C@@H](NC(=O)[C@H](C)NC(=O)[C@@H]1CSCSC[C@H](NC(=O)CC[C@H](N)C(=O)O)C(=O)N[C@@H](CC(N)=O)C(=O)N[C@@H]([C@@H](C)O)C(=O)N[C@@H](C)C(=O)N[C@@H]([C@@H](C)O)C(=O)N1)[C@@H](C)O)C(=O)N[C@@H](C)C(=O)N[C@@H](CCC(=O)O)C(=O)N[C@@H](Cc1ccccc1)C(=O)N[C@@H](CC(C)C)C(=O)N[C@H](C(=O)N[C@@H](CCCNC(=N)N)C(=O)N[C@@H](CO)C(=O)N[C@@H](CO)C(=O)N[C@@H](CC(N)=O)C(=O)N[C@@H](CC(N)=O)C(=O)N[C@@H](Cc1ccccc1)C(=O)NCC(=O)N1CCC[C@H]1C(=O)N[C@@H](CCCCNC(=O)COCCOCCNC(=O)COCCOCCNC(=O)CC[C@H](NC(=O)CCCCCCCCCCCCCCCCCCC(=O)O)C(=O)O)C(=O)N[C@@H](CC(C)C)C(=O)N1CCC[C@H]1C(=O)N1CCC[C@H]1C(=O)N[C@H](C(=O)N[C@@H](CCC(=O)O)C(=O)N[C@H](C(=O)NCC(=O)N[C@@H](CO)C(=O)N[C@@H](CC(N)=O)C(=O)N[C@H](C(=O)N[C@@H](Cc1ccc(O)cc1)C(N)=O)[C@@H](C)O)C(C)C)[C@@H](C)O)C(C)C [Compound XII] (γGlu-CNTATCATQ[Orn]LAEFLVRSSNNFGPK([AEEA-AEEA-γGlu-C20 diacid])LPPTEVGSNTY-NH2; linker 1-6 via CH2)

EC50 (hAMY1R): 0.038 ± 0.0078 nM
EC50 (human CT receptors): 10.5 ± 2.2 nM
Molecule: CC(C)C[C@H](NC(=O)[C@H](CCCCN)NC(=O)CNC(=O)[C@@H](NC(=O)[C@H](C)NC(=O)[C@@H]1CSCSC[C@H](NC(=O)CC[C@H](N)C(=O)O)C(=O)N[C@@H](CC(N)=O)C(=O)N[C@@H]([C@@H](C)O)C(=O)N[C@@H](C)C(=O)N[C@@H]([C@@H](C)O)C(=O)N1)[C@@H](C)O)C(=O)N[C@@H](C)C(=O)N[C@@H](CCC(=O)O)C(=O)N[C@@H](Cc1ccccc1)C(=O)N[C@@H](CC(C)C)C(=O)N[C@H](C(=O)N[C@@H](CCCNC(=N)N)C(=O)N[C@@H](CO)C(=O)N[C@@H](CO)C(=O)N[C@@H](CC(N)=O)C(=O)N[C@@H](CC(N)=O)C(=O)N[C@@H](Cc1ccccc1)C(=O)NCC(=O)N1CCC[C@H]1C(=O)N[C@@H](CCCCNC(=O)CC[C@H](NC(=O)CC[C@H](NC(=O)COCCOCCNC(=O)CCCCCCCCCCCCCCCCCCC(=O)O)C(=O)O)C(=O)O)C(=O)N[C@@H](CC(C)C)C(=O)N1CCC[C@H]1C(=O)N1CCC[C@H]1C(=O)N[C@H](C(=O)N[C@@H](CCC(=O)O)C(=O)N[C@H](C(=O)NCC(=O)N[C@@H](CO)C(=O)N[C@@H](CC(N)=O)C(=O)N[C@H](C(=O)N[C@@H](Cc1ccc(O)cc1)C(N)=O)[C@@H](C)O)C(C)C)[C@@H](C)O)C(C)C [Compound XI] (γGlu-CNTATCATGKLAEFLVRSSNNFGPK([γGlu-γGlu-AEEA-C20 diacid])LPPTEVGSNTY-NH2; linker 1-6 via CH2)

EC50 (hAMY1R): 0.08 ± 0.013 nM
EC50 (human CT receptors): 14 ± 3.32 nM
Molecule: CC(C)C[C@H](NC(=O)[C@H](CCCCN)NC(=O)CNC(=O)[C@@H](NC(=O)[C@H](C)NC(=O)[C@@H]1CSCSC[C@H](NC(=O)CC[C@H](N)C(=O)O)C(=O)N[C@@H](CC(N)=O)C(=O)N[C@@H]([C@@H](C)O)C(=O)N[C@@H](C)C(=O)N[C@@H]([C@@H](C)O)C(=O)N1)[C@@H](C)O)C(=O)N[C@@H](C)C(=O)N[C@@H](CCC(=O)O)C(=O)N[C@@H](Cc1ccccc1)C(=O)N[C@@H](CC(C)C)C(=O)N[C@H](C(=O)N[C@@H](CCCNC(=N)N)C(=O)N[C@@H](CO)C(=O)N[C@@H](CO)C(=O)N[C@@H](CC(N)=O)C(=O)N[C@@H](CC(N)=O)C(=O)N[C@@H](Cc1ccccc1)C(=O)NCC(=O)N1CCC[C@H]1C(=O)N[C@@H](CCCCNC(=O)CC[C@H](NC(=O)COCCOCCNC(=O)COCCOCCNC(=O)CCCCCCCCCCCCCCCCCCC(=O)O)C(=O)O)C(=O)N[C@@H](CC(C)C)C(=O)N1CCC[C@H]1C(=O)N1CCC[C@H]1C(=O)N[C@H](C(=O)N[C@@H](CCC(=O)O)C(=O)N[C@H](C(=O)NCC(=O)N[C@@H](CO)C(=O)N[C@@H](CC(N)=O)C(=O)N[C@H](C(=O)N[C@@H](Cc1ccc(O)cc1)C(N)=O)[C@@H](C)O)C(C)C)[C@@H](C)O)C(C)C [Compound X] (γGlu-CNTATCATGKLAEFLVRSSNNFGPK([γGlu-AEEA-AEEA-C20 diacid])LPPTEVGSNTY-NH2; linker 1-6 via CH2)

Source: patent publication US12551532B2, “Long-acting amylin receptor agonists and uses thereof” (Eli Lilly and Company, priority 2021, dated 2026)
